From paper PMC6259141, “Phytochemical and Cytotoxic Investigations of Alpinia mutica Rhizomes” (Molecules, 2011)
In brackets after ≈: the same amount, converted by molar mass.

How the values were obtained:
[1] = in vitro neutral red cytotoxicity assay, MRC5; settings: human, MRC5 fibroblast cells (normal, non-cancer)
Text: (§1) The in vitro cytotoxic activity was studied by the neutral red cytotoxicity assay [5]. KB (epidermoid carcinoma cell line), MCF7 (hormone-dependent breast carcinoma cell line), A549 (lung carcinoma cell line), CaSki (cervical carcinoma cell line), HCT116 (colon carcinoma cell line), HT29 (colon carcinoma cell line) and non-human fibroblast cell line (MRC 5) were purchased from the American Tissue Culture Collection (ATCC).

[2] = test system: A549 (lung carcinoma cell line); experiment: in vitro neutral red cytotoxicity assay, A549; format: cell-based; settings: Homo sapiens, A549 cells, averaged from three experiments, read-out: Cytotoxic activity IC50, A549
Text: as §1

[3] = test system: HCT116 (colon carcinoma cell line); experiment: in vitro neutral red cytotoxicity assay, HCT116; settings: Homo sapiens, HCT-116, read-out: Cytotoxic activity IC50, HCT116
Text: as §1

[4] = test system: HT29 (colon carcinoma cell line); experiment: in vitro neutral red cytotoxicity assay, HT29; format: cell-based; settings: Homo sapiens, HT-29, HT29 cells, averaged from three experiments, read-out: Cytotoxic activity IC50, HT29
Text: as §1

[5] = test system: CaSki (cervical carcinoma cell line); experiment: in vitro neutral red cytotoxicity assay, CaSki; settings: Homo sapiens, Ca-Ski, read-out: Cytotoxic activity IC50, CaSki
Text: as §1

[6] = test system: MCF7 (hormone-dependent breast carcinoma cell line); experiment: in vitro neutral red cytotoxicity assay, MCF7; settings: Homo sapiens, MCF7, read-out: Cytotoxic activity IC50, MCF7
Text: as §1

[7] = test system: KB (epidermoid carcinoma cell line); experiment: in vitro neutral red cytotoxicity assay, KB; settings: Homo sapiens, read-out: Cytotoxic activity IC50, KB
Text: as §1

[8] = test system: MCF7 (hormone-dependent breast carcinoma cell line)
Text: as §1

[9] = test system: MRC5 fibroblast cell line (non-cancer)
Text: as §1

[10] = test system: HCT116 (colon carcinoma cell line)
Text: as §1

[11] = test system: KB (epidermoid carcinoma cell line)
Text: as §1

[12] = test system: CaSki (cervical carcinoma cell line)
Text: as §1

Molecule | IC50 [1] [mg/L] | IC50 [2] [mg/L] | IC50 [3] [mg/L] | IC50 [4] [mg/L] | IC50 [5] [mg/L] | IC50 [6] [mg/L] | IC50 [7] [mg/L] | Cytotoxic activity IC50, MCF7 [8] [mg/L] | Cytotoxic activity IC50, MRC5 [9] [mg/L] | Cytotoxic activity IC50, HCT116 [10] [mg/L] | Cytotoxic activity IC50, KB [11] [mg/L] | Cytotoxic activity IC50, CaSki [12] [mg/L]
COc1cccc2c1C(=O)c1c(O)c3c(c(O)c1C2=O)C[C@@](O)(C(=O)CO)C[C@@H]3O[C@H]1C[C@H](N)[C@H](O)[C@H](C)O1 [Doxorubicin, reference compound] | 0.4 ± 0.03 (≈ 0.736 µM) | 0.58 ± 0.01 (≈ 1.07 µM) | 0.24 ± 0.04 (≈ 0.442 µM) | 0.33 ± 0.03 (≈ 0.607 µM) | 0.18 ± 0.06 (≈ 0.331 µM) | 0.05 ± 0.01 (≈ 0.092 µM) |  |  |  |  |  | 
COc1cc(O)c(C(=O)/C=C/c2ccccc2)c(OC)c1 [Flavokawin B (1), flavokawin B] | 17.2 ± 0.5 (≈ 60.5 µM) |  | 6.4 ± 0.2 (≈ 22.5 µM) |  | 31.1 ± 1.3 (≈ 109 µM) | 49.3 ± 1.8 (≈ 173 µM) | 5.7 ± 0.4 (≈ 20 µM) |  |  |  |  | 
COc1cc(O)c(C(=O)/C=C/c2ccccc2)c(O)c1 [Pinostrobin chalcone (3), pinostrobin chalcone] | 7.9 ± 0.8 (≈ 29.2 µM) |  | 54.1 ± 4.6 (≈ 200 µM) |  | 7.7 ± 0.2 (≈ 28.5 µM) | 7.3 ± 0.6 (≈ 27 µM) | 6.2 ± 0.2 (≈ 22.9 µM) |  |  |  |  | 
alpinetin [Alpinetin (4)] |  |  |  |  |  |  |  | > 100 | > 100 | 39.6 ± 2.0 | >100 | >100
